The test system of the test is HCT116. Conditions: 72 h. The method, boiled down: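 Luminescence was read with CellTiter-Glo in HCT116 cells seeded at 250 per well in 1536-well plates. Signals were scaled between vehicle at 0% and positive control at -100%, then pattern-corrected. IC50 and maximal efficacy were obtained by fitting a four-parameter Hill equation.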

Structures can show the parent of a compound that is named as a salt. Bounds are passed on as bounds.

`CCOc1ccc2c(c1)C(C)=CC(C)(C)N2` [Ethoxyquin] displayed an IC50 cell viability (ICRF193 0 nM) greater than 45.8 µM and an IC50 cell viability (ICRF193 200 nM) greater than 45.8 µM.

With `CCOc1ccc2nc(S(N)(=O)=O)sc2c1` [Ethoxzolamide], the IC50 cell viability reads like this: (ICRF193 0 nM) greater than 45.8 µM; (ICRF193 200 nM) greater than 45.8 µM.

For the compound `CCOC(=O)c1cccc(N)c1` [Ethyl 3-aminobenzoate methanesulfonic acid salt], the IC50 cell viability is, setting by setting: (ICRF193 0 nM) greater than 45.8 µM; (ICRF193 200 nM) greater than 45.8 µM.

Regarding `CCCCC/C=C\C/C=C\CCCCCCCC(=O)OCC` [Ethyl linoleate], the IC50 cell viability is, setting by setting: (ICRF193 0 nM) greater than 45.8 µM; (ICRF193 200 nM) greater than 45.8 µM.

As for `CCOC(=O)c1ccccc1O` [Ethyl salicylate], the IC50 cell viability was greater than 45.8 µM (ICRF193 0 nM) and greater than 45.8 µM (ICRF193 200 nM).

`CC[C@]1(O)CC[C@H]2[C@@H]3CCC4=CCCC[C@@H]4[C@H]3CC[C@@]21C` [Ethylestrenol] gave an IC50 cell viability (ICRF193 0 nM) greater than 45.8 µM and an IC50 cell viability (ICRF193 200 nM) greater than 45.8 µM.

For `CCOc1ccc2c3c1O[C@H]1[C@@H](O)C=C[C@H]4[C@@H](C2)N(C)CC[C@@]341` [Ethylmorphine], the IC50 cell viability runs as follows: (ICRF193 0 nM) greater than 45.8 µM; (ICRF193 200 nM) greater than 45.8 µM.

The compound `CCOC(=O)c1ccc(O)cc1` [Ethylparaben] returned an IC50 cell viability (ICRF193 0 nM) greater than 45.8 µM and an IC50 cell viability (ICRF193 200 nM) greater than 45.8 µM.

With `CCCN(CC)C(CC)C(=O)Nc1c(C)cccc1C` (stereo unspecified) [Etidocaine], the IC50 cell viability (ICRF193 0 nM) was greater than 45.8 µM and the IC50 cell viability (ICRF193 200 nM) was greater than 45.8 µM.

Consider `CC(O)(P(=O)(O)O)P(=O)(O)O` [Etidronate disodium], for which the IC50 cell viability runs as follows: (ICRF193 0 nM) greater than 45.8 µM; (ICRF193 200 nM) greater than 45.8 µM.

Turning to `CCC(CN)=C(c1ccccc1)c1ccccc1` [Etifelmine hydrochloride], the IC50 cell viability reads like this: (ICRF193 0 nM) greater than 45.8 µM; (ICRF193 200 nM) greater than 45.8 µM.

Regarding `CCc1cccc(CC)c1NC(=O)CN(CC(=O)O)CC(=O)O` [Etifenin], the IC50 cell viability was greater than 45.8 µM (ICRF193 0 nM) and greater than 45.8 µM (ICRF193 200 nM).

Consider `CCNCC(O)c1cccc(O)c1` (stereo unspecified) [Etilefrine hydrochloride], for which the IC50 cell viability is, setting by setting: (ICRF193 0 nM) greater than 45.8 µM; (ICRF193 200 nM) greater than 45.8 µM.

Take `CCc1cc2c(s1)-n1c(C)nnc1CN=C2c1ccccc1Cl` [Etizolam]: the IC50 cell viability runs as follows: (ICRF193 0 nM) greater than 45.8 µM; (ICRF193 200 nM) greater than 45.8 µM.

Take `CCc1cccc2c3c([nH]c12)C(CC)(CC(=O)O)OCC3` (stereo unspecified) [Etodolac]: the IC50 cell viability runs as follows: (ICRF193 0 nM) greater than 45.8 µM; (ICRF193 200 nM) greater than 45.8 µM.

For the compound `CCOC(=O)c1cncn1[C@H](C)c1ccccc1` [Etomidate], the IC50 cell viability is, setting by setting: (ICRF193 0 nM) greater than 45.8 µM; (ICRF193 200 nM) greater than 45.8 µM.

Take `CCN1C(=O)c2ccccc2C1Nc1ccc(OCCN2CCCCC2)cc1` (stereo unspecified) [Etomidoline]: the IC50 cell viability reads like this: (ICRF193 0 nM) greater than 45.8 µM; (ICRF193 200 nM) greater than 45.8 µM.

Turning to `C#C[C@]1(O)CC[C@H]2[C@@H]3CCC4=CC(=O)CC[C@@H]4[C@H]3C(=C)C[C@@]21CC` [Etonogestrel], the IC50 cell viability is greater than 45.8 µM (ICRF193 0 nM) and greater than 45.8 µM (ICRF193 200 nM).

As to `Cc1ccc(-c2ncc(Cl)cc2-c2ccc(S(C)(=O)=O)cc2)cn1` [Etoricoxib], the IC50 cell viability is, setting by setting: (ICRF193 0 nM) greater than 45.8 µM; (ICRF193 200 nM) greater than 45.8 µM.

In the case of `CCOC(=O)/C=C(C)/C=C/C=C(C)/C=C/c1c(C)cc(OC)c(C)c1C` [Etretinate], the IC50 cell viability is, setting by setting: (ICRF193 0 nM) greater than 45.8 µM; (ICRF193 200 nM) greater than 45.8 µM.

In the case of `C=CCc1ccc(O)c(OC)c1` [Eugenol], the IC50 cell viability was greater than 45.8 µM (ICRF193 0 nM) and greater than 45.8 µM (ICRF193 200 nM).

Turning to `CO[C@H]1C[C@@H]2CC[C@@H](C)[C@@](O)(O2)C(=O)C(=O)N2CCCC[C@H]2C(=O)O[C@H]([C@H](C)C[C@@H]2CC[C@@H](OCCO)[C@H](OC)C2)CC(=O)[C@H](C)/C=C(\C)[C@@H](O)[C@@H](OC)C(=O)[C@H](C)C[C@H](C)/C=C/C=C/C=C/1C` [Everolimus], the IC50 cell viability (ICRF193 0 nM) was greater than 45.8 µM and the IC50 cell viability (ICRF193 200 nM) is greater than 45.8 µM.

With `CCCCCCOc1ccccc1C(N)=O` [Exalamide], the IC50 cell viability (ICRF193 0 nM) was greater than 45.8 µM and the IC50 cell viability (ICRF193 200 nM) is greater than 45.8 µM.

`C/C(=N\O)C(C)NCC(C)(C)CNC(C)/C(C)=N/O` (stereo unspecified) [Exametazime] showed an IC50 cell viability (ICRF193 0 nM) greater than 45.8 µM and an IC50 cell viability (ICRF193 200 nM) greater than 45.8 µM.

For the compound `C=C1C[C@@H]2[C@H](CC[C@]3(C)C(=O)CC[C@@H]23)[C@@]2(C)C=CC(=O)C=C12` [Exemestane], the IC50 cell viability is, setting by setting: (ICRF193 0 nM) greater than 45.8 µM; (ICRF193 200 nM) greater than 45.8 µM.

In the case of `O=C1[C@H](CC[C@H](O)c2ccc(F)cc2)[C@@H](c2ccc(O)cc2)N1c1ccc(F)cc1` [Ezetimibe], the IC50 cell viability was greater than 45.8 µM (ICRF193 0 nM) and greater than 45.8 µM (ICRF193 200 nM).

For `CC(C)C(=O)Oc1ccc(CO)cc1[C@H](CCN(C(C)C)C(C)C)c1ccccc1` [FESOTERODINE FUMARATE], the IC50 cell viability is greater than 45.8 µM (ICRF193 0 nM) and greater than 45.8 µM (ICRF193 200 nM).

Consider `CC1(C)OC(=O)C(OCC2CC2)=C1c1ccc(S(C)(=O)=O)cc1` [FIROCOXIB], for which the IC50 cell viability is greater than 45.8 µM (ICRF193 0 nM) and greater than 45.8 µM (ICRF193 200 nM).

The values above are taken from the supplement of paper PMC12137928.
